Source: patent US12486300B2, “Mithramycin oxime derivatives having increased selectivity and anti-cancer activity” (University of Kentucky Research Foundation, priority 2018, dated 2025)

System: TC32 Ewing sarcoma cells, expressing EWS-FLI1
Test: Growth inhibition assay, TC32 cells
Type: cell-based
Conditions: ratio of GI50 PC3 to TC32
Protocol: Growth inhibition assay to assess cytotoxicity in ETS vs non-ETS expressing cells. Cells were seeded in clear 96-well plates (VWR, Radnor, PA). Seeding densities were optimized for each cell line to support 5 days of linear growth. Following a 24 hours attachment period, cells in duplicate wells were treated with half-log increments of respective compounds (0 nM and 0.3 nM-10 μM). Working stocks were prepared from an initial 10 mM drug stock diluted in either 100% ethanol or dimethyl sulfoxide (DMSO). All wells contained a final concentration of 0.1% (v/v) respective organic solvent. Immediately following treatment, cell viability was measured for vehicle control (Day 0) wells. Cell viability was measured in the remaining wells after 72 hours of incubation with compound or vehicle control (Day 3).
Percent viability, relative to the initial cell seeding concentration, was calculated by ((TreatmentDay3−Vehicle ControlDay0)/(Vehicle ControlDay3−Vehicle ControlDay0))×100. Percent cell viability was plotted as a function of compound concentration (Log [M]) and the data were fit using a 3-parameter non-linear model with fixed Hill slope constant and 4-parameter non-linear model with variable Hill slope constant. The model with the best curve fit was used to estimate the GI50 in GraphPad Prism 7.0 software (GraphPad Software, La Jolla, CA). The 3-parameter equation used was Y=Bottom+(Top−Bottom)/(1+10[…]((X−Log[IC50]))). The 4-parameter equation used was Y=Bottom+(Top−Bottom)/(1+10[…]((Log[IC50]−X)*Hillslope)). Top and Bottom are plateaus in the units of the Y-axis (response). IC50 is the response (Y-axis) halfway between Top and Bottom plateaus.
All compounds were tested at least once in multi-well replicates and each experiment included one a control compound (i.e., MTM) to ensure the stable response of the cell lines. The selectivity index was estimated by determining the ratio of GI50 estimates between ETS fusion negative and ETS fusion positive cell lines.

COC(=O)C(Cc1ccccc1)NC(=O)CON=C(C(O)C(C)O)C(OC)C1Cc2cc3cc(OC4CC(OC5CC(O)C(O)C(C)O5)C(O)C(C)O4)c(C)c(O)c3c(O)c2C(=O)C1OC1CC(OC2CC(OC3CC(C)(O)C(O)C(C)O3)C(O)C(C)O2)C(O)C(C)O1 (stereo not shown) [MTM (30)]
PC:TC32 (cellular selectivity): 2.08

COC(C(=NOCC(=O)NCc1ccccc1)C(O)C(C)O)C1Cc2cc3cc(OC4CC(OC5CC(O)C(O)C(C)O5)C(O)C(C)O4)c(C)c(O)c3c(O)c2C(=O)C1OC1CC(OC2CC(OC3CC(C)(O)C(O)C(C)O3)C(O)C(C)O2)C(O)C(C)O1 (stereo not shown) [MTM (31)]
PC:TC32 (cellular selectivity): 1.83

COC(C(=NOCC(=O)Nc1ccccc1)C(O)C(C)O)C1Cc2cc3cc(OC4CC(OC5CC(O)C(O)C(C)O5)C(O)C(C)O4)c(C)c(O)c3c(O)c2C(=O)C1OC1CC(OC2CC(OC3CC(C)(O)C(O)C(C)O3)C(O)C(C)O2)C(O)C(C)O1 (stereo not shown) [MTM (32)]
PC:TC32 (cellular selectivity): 1.11

COC(C(=NNC(=O)CCCCCN1C(=O)C=CC1=O)C(O)C(C)O)C1Cc2cc3cc(OC4CC(OC5CC(O)C(O)C(C)O5)C(O)C(C)O4)c(C)c(O)c3c(O)c2C(=O)C1OC1CC(OC2CC(OC3CC(C)(O)C(O)C(C)O3)C(O)C(C)O2)C(O)C(C)O1 (stereo not shown) [MTM (33)]
PC:TC32 (cellular selectivity): 3.9

COC(=O)C(Cc1c[nH]c2ccccc12)NC(=O)C(C)NC(=O)CON=C(C(O)C(C)O)C(OC)C1Cc2cc3cc(OC4CC(OC5CC(O)C(O)C(C)O5)C(O)C(C)O4)c(C)c(O)c3c(O)c2C(=O)C1OC1CC(OC2CC(OC3CC(C)(O)C(O)C(C)O3)C(O)C(C)O2)C(O)C(C)O1 (stereo not shown) [MTM (34)]
PC:TC32 (cellular selectivity): 4.28

COC(C(=NOCC(=O)NC(Cc1c[nH]c2ccccc12)C(=O)O)C(O)C(C)O)C1Cc2cc3cc(OC4CC(OC5CC(O)C(O)C(C)O5)C(O)C(C)O4)c(C)c(O)c3c(O)c2C(=O)C1OC1CC(OC2CC(OC3CC(C)(O)C(O)C(C)O3)C(O)C(C)O2)C(O)C(C)O1 (stereo not shown) [MTM (39)]
PC:TC32 (cellular selectivity): 7.4

COC(C(=NOCC(=O)NC(Cc1c[nH]c2ccccc12)C(=O)NCCc1c[nH]c2ccccc12)C(O)C(C)O)C1Cc2cc3cc(OC4CC(OC5CC(O)C(O)C(C)O5)C(O)C(C)O4)c(C)c(O)c3c(O)c2C(=O)C1OC1CC(OC2CC(OC3CC(C)(O)C(O)C(C)O3)C(O)C(C)O2)C(O)C(C)O1 (stereo not shown) [MTM (43)]
PC:TC32 (cellular selectivity): 2.6

COC(C(=NOCC(=O)Nc1ccncc1)C(O)C(C)O)C1Cc2cc3cc(OC4CC(OC5CC(O)C(O)C(C)O5)C(O)C(C)O4)c(C)c(O)c3c(O)c2C(=O)C1OC1CC(OC2CC(OC3CC(C)(O)C(O)C(C)O3)C(O)C(C)O2)C(O)C(C)O1 (stereo not shown) [MTM (45)]
PC:TC32 (cellular selectivity): 2.4

COC(C(=NOCC(=O)NC(Cc1c[nH]c2ccccc12)C(=O)Nc1ccccc1)C(O)C(C)O)C1Cc2cc3cc(OC4CC(OC5CC(O)C(O)C(C)O5)C(O)C(C)O4)c(C)c(O)c3c(O)c2C(=O)C1OC1CC(OC2CC(OC3CC(C)(O)C(O)C(C)O3)C(O)C(C)O2)C(O)C(C)O1 (stereo not shown) [MTM (47)]
PC:TC32 (cellular selectivity): 2.7

COC(C(=NOCC(=O)NC(Cc1c[nH]c2ccccc12)C(=O)NCc1c[nH]c2ccccc12)C(O)C(C)O)C1Cc2cc3cc(OC4CC(OC5CC(O)C(O)C(C)O5)C(O)C(C)O4)c(C)c(O)c3c(O)c2C(=O)C1OC1CC(OC2CC(OC3CC(C)(O)C(O)C(C)O3)C(O)C(C)O2)C(O)C(C)O1 (stereo not shown) [MTM (48)]
PC:TC32 (cellular selectivity): 2.30

COC(C(=NOCC(=O)Nc1cccnc1)C(O)C(C)O)C1Cc2cc3cc(OC4CC(OC5CC(O)C(O)C(C)O5)C(O)C(C)O4)c(C)c(O)c3c(O)c2C(=O)C1OC1CC(OC2CC(OC3CC(C)(O)C(O)C(C)O3)C(O)C(C)O2)C(O)C(C)O1 (stereo not shown) [MTM (49)]
PC:TC32 (cellular selectivity): 2.4

COC(C(=NOCC(=O)Nc1cncnc1)C(O)C(C)O)C1Cc2cc3cc(OC4CC(OC5CC(O)C(O)C(C)O5)C(O)C(C)O4)c(C)c(O)c3c(O)c2C(=O)C1OC1CC(OC2CC(OC3CC(C)(O)C(O)C(C)O3)C(O)C(C)O2)C(O)C(C)O1 (stereo not shown) [MTM (50)]
PC:TC32 (cellular selectivity): 2.7

COC(=O)C(Cc1ccccc1)NC(=O)C(Cc1c[nH]c2ccccc12)NC(=O)CON=C(C(O)C(C)O)C(OC)C1Cc2cc3cc(OC4CC(OC5CC(O)C(O)C(C)O5)C(O)C(C)O4)c(C)c(O)c3c(O)c2C(=O)C1OC1CC(OC2CC(OC3CC(C)(O)C(O)C(C)O3)C(O)C(C)O2)C(O)C(C)O1 (stereo not shown) [MTM (51)]
PC:TC32 (cellular selectivity): 2.2

COC(=O)C(C)NC(=O)C(Cc1c[nH]c2ccccc12)NC(=O)CON=C(C(O)C(C)O)C(OC)C1Cc2cc3cc(OC4CC(OC5CC(O)C(O)C(C)O5)C(O)C(C)O4)c(C)c(O)c3c(O)c2C(=O)C1OC1CC(OC2CC(OC3CC(C)(O)C(O)C(C)O3)C(O)C(C)O2)C(O)C(C)O1 (stereo not shown) [MTM (52)]
PC:TC32 (cellular selectivity): 6.6

CNC(=O)C(Cc1c[nH]c2ccccc12)NC(=O)C(Cc1c[nH]c2ccccc12)NC(=O)CON=C(C(O)C(C)O)C(OC)C1Cc2cc3cc(OC4CC(OC5CC(O)C(O)C(C)O5)C(O)C(C)O4)c(C)c(O)c3c(O)c2C(=O)C1OC1CC(OC2CC(OC3CC(C)(O)C(O)C(C)O3)C(O)C(C)O2)C(O)C(C)O1 (stereo not shown) [MTM (53)]
PC:TC32 (cellular selectivity): 5.0

COC(C(=NOCC(=O)NC(Cc1c[nH]c2ccccc12)C(=O)NC(C)CO)C(O)C(C)O)C1Cc2cc3cc(OC4CC(OC5CC(O)C(O)C(C)O5)C(O)C(C)O4)c(C)c(O)c3c(O)c2C(=O)C1OC1CC(OC2CC(OC3CC(C)(O)C(O)C(C)O3)C(O)C(C)O2)C(O)C(C)O1 (stereo not shown) [MTM (55)]
PC:TC32 (cellular selectivity): 2.7

COC(C(=NOCC(=O)NC(Cc1c[nH]c2ccccc12)C(=O)NCc1cnccn1)C(O)C(C)O)C1Cc2cc3cc(OC4CC(OC5CC(O)C(O)C(C)O5)C(O)C(C)O4)c(C)c(O)c3c(O)c2C(=O)C1OC1CC(OC2CC(OC3CC(C)(O)C(O)C(C)O3)C(O)C(C)O2)C(O)C(C)O1 (stereo not shown) [MTM (56)]
PC:TC32 (cellular selectivity): 1.9

COC(C(=NOCC(=O)NC(Cc1c[nH]c2ccccc12)C(=O)NC(Cc1c[nH]c2ccccc12)c1nc(C)no1)C(O)C(C)O)C1Cc2cc3cc(OC4CC(OC5CC(O)C(O)C(C)O5)C(O)C(C)O4)c(C)c(O)c3c(O)c2C(=O)C1OC1CC(OC2CC(OC3CC(C)(O)C(O)C(C)O3)C(O)C(C)O2)C(O)C(C)O1 (stereo not shown) [MTM (58)]
PC:TC32 (cellular selectivity): 2.4

COC(C(=NOCC(=O)Nc1ccc2[nH]ccc2c1)C(O)C(C)O)C1Cc2cc3cc(OC4CC(OC5CC(O)C(O)C(C)O5)C(O)C(C)O4)c(C)c(O)c3c(O)c2C(=O)C1OC1CC(OC2CC(OC3CC(C)(O)C(O)C(C)O3)C(O)C(C)O2)C(O)C(C)O1 (stereo not shown) [MTM (60)]
PC:TC32 (cellular selectivity): 10

COC(=O)c1ccc(NC(=O)CON=C(C(O)C(C)O)C(OC)C2Cc3cc4cc(OC5CC(OC6CC(O)C(O)C(C)O6)C(O)C(C)O5)c(C)c(O)c4c(O)c3C(=O)C2OC2CC(OC3CC(OC4CC(C)(O)C(O)C(C)O4)C(O)C(C)O3)C(O)C(C)O2)c(OCC(C)C)c1 (stereo not shown) [MTM (61)]
PC:TC32 (cellular selectivity): 5.7

COC(C(=NOCCNC(=O)c1ccc([N+](=O)[O-])c(OCC(C)C)c1)C(O)C(C)O)C1Cc2cc3cc(OC4CC(OC5CC(O)C(O)C(C)O5)C(O)C(C)O4)c(C)c(O)c3c(O)c2C(=O)C1OC1CC(OC2CC(OC3CC(C)(O)C(O)C(C)O3)C(O)C(C)O2)C(O)C(C)O1 (stereo not shown) [MTM (63)]
PC:TC32 (cellular selectivity): 13.3

COC(C(=NOCC(=O)NCc1ccc2cc[nH]c2c1)C(O)C(C)O)C1Cc2cc3cc(OC4CC(OC5CC(O)C(O)C(C)O5)C(O)C(C)O4)c(C)c(O)c3c(O)c2C(=O)C1OC1CC(OC2CC(OC3CC(C)(O)C(O)C(C)O3)C(O)C(C)O2)C(O)C(C)O1 (stereo not shown) [MTM (64)]
PC:TC32 (cellular selectivity): 12.3

COC(C(=NOCC(=O)NCc1ccc2[nH]ccc2c1)C(O)C(C)O)C1Cc2cc3cc(OC4CC(OC5CC(O)C(O)C(C)O5)C(O)C(C)O4)c(C)c(O)c3c(O)c2C(=O)C1OC1CC(OC2CC(OC3CC(C)(O)C(O)C(C)O3)C(O)C(C)O2)C(O)C(C)O1 (stereo not shown) [MTM (65)]
PC:TC32 (cellular selectivity): 20.1

COC(C(=NOCC(=O)Nc1ccc2cc[nH]c2c1)C(O)C(C)O)C1Cc2cc3cc(OC4CC(OC5CC(O)C(O)C(C)O5)C(O)C(C)O4)c(C)c(O)c3c(O)c2C(=O)C1OC1CC(OC2CC(OC3CC(C)(O)C(O)C(C)O3)C(O)C(C)O2)C(O)C(C)O1 (stereo not shown) [MTM (66)]
PC:TC32 (cellular selectivity): 4.2

COC(C(=NOCC(=O)Nc1ccc2c(c1)CC(=O)N2)C(O)C(C)O)C1Cc2cc3cc(OC4CC(OC5CC(O)C(O)C(C)O5)C(O)C(C)O4)c(C)c(O)c3c(O)c2C(=O)C1OC1CC(OC2CC(OC3CC(C)(O)C(O)C(C)O3)C(O)C(C)O2)C(O)C(C)O1 (stereo not shown) [MTM (67)]
PC:TC32 (cellular selectivity): 3.8

COC(C(=NOCC(=O)Nc1cccc2[nH]ccc12)C(O)C(C)O)C1Cc2cc3cc(OC4CC(OC5CC(O)C(O)C(C)O5)C(O)C(C)O4)c(C)c(O)c3c(O)c2C(=O)C1OC1CC(OC2CC(OC3CC(C)(O)C(O)C(C)O3)C(O)C(C)O2)C(O)C(C)O1 (stereo not shown) [MTM (68)]
PC:TC32 (cellular selectivity): 4.5

COC(C(=NOCC(=O)Nc1ccc2scnc2c1)C(O)C(C)O)C1Cc2cc3cc(OC4CC(OC5CC(O)C(O)C(C)O5)C(O)C(C)O4)c(C)c(O)c3c(O)c2C(=O)C1OC1CC(OC2CC(OC3CC(C)(O)C(O)C(C)O3)C(O)C(C)O2)C(O)C(C)O1 (stereo not shown) [MTM (69)]
PC:TC32 (cellular selectivity): 11.4

COC(C(=NOCC(=O)Nc1ccc2ncsc2c1)C(O)C(C)O)C1Cc2cc3cc(OC4CC(OC5CC(O)C(O)C(C)O5)C(O)C(C)O4)c(C)c(O)c3c(O)c2C(=O)C1OC1CC(OC2CC(OC3CC(C)(O)C(O)C(C)O3)C(O)C(C)O2)C(O)C(C)O1 (stereo not shown) [MTM (70)]
PC:TC32 (cellular selectivity): 7.2
